# Assay results: PubChem BioAssay AID623867 (Sanford-Burnham Center for Chemical Genomics, 2012)
# The source made the active and inactive calls.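 Rule for the calls: active = mean IC50 of at most 10 µM; inactive = the rest.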
# Test system: H9c2 cardiomyocytes, H2O2 injury protection, ATP luminescence, 2 h
# Experiment: H9c2 survival under peroxide injury – cell-based, hydrogen peroxide, ATP luminescence, SAR follow-up (AID 623867)
row,Compound,IC50
1,CCN(CC)C(=O)C(=O)c1c(-c2ccccc2)[nH]c2ccccc12,> 79 µM (inactive)
2,Cc1ccc2cc(CN(Cc3cccnc3)S(=O)(=O)c3ccc(F)cc3)c(=O)[nH]c2c1,> 79 µM (inactive)
3,COc1ccc(-c2cc(C(=O)NCc3ccco3)c3ccccc3n2)cc1OC,41 µM
4,Cc1ccc2cc(CN(C)S(=O)(=O)c3ccc(F)cc3)c(=O)[nH]c2c1,> 79 µM (inactive)
5,Cc1ccccc1N(C(=O)c1snc(C(N)=O)c1N)C(C(=O)NCc1ccc(F)cc1)c1ccc(O)cc1 (stereo not given),> 79 µM (inactive)
6,CCCN(CC(=O)Nc1ccccc1OC)C(=O)c1cc(-c2cccs2)nn1-c1ccccc1,> 79 µM (inactive)
7,COc1ccc2c(c1OC)C(=O)N1c3ccccc3C(=O)N(c3ccccc3C)C21 (stereo not given),58.5 µM (inactive)
8,Cc1ccc(-c2[nH]c3ccccc3c2C(=O)C(=O)N(C)C)cc1,> 79 µM (inactive)
9,Cc1ccc(C)c(S(=O)(=O)N2CCN(C(=O)c3cc4cc(C)ccc4nc3C)CC2)c1,> 79 µM (inactive)
10,COc1ccc(N2C(=O)c3ccccc3N3C(=O)c4c(ccc(OC)c4OC)C23)cc1 (stereo not given),23.4 µM (inactive)
11,COc1ccc(-c2cc(C(=O)NCc3ccccc3)c3ccccc3n2)cc1OC,> 79 µM (inactive)
12,O=C1c2ccccc2N2C(=O)c3ccccc3[C@H]2N1c1ccccc1,29.4 µM (inactive)
13,COCCNC(=O)C(c1ccc(O)cc1)N(C(=O)c1snc(C(N)=O)c1N)c1ccccc1F (stereo not given),> 79 µM (inactive)
14,COc1ccc2c(=O)c(C(=O)N3CCN(S(=O)(=O)c4c(C)cc(C)cc4C)CC3)c[nH]c2c1,> 79 µM (inactive)
15,CCCn1c(SC(C(=O)Nc2cccc(OC)c2)c2ccccc2)nc2ccccc2c1=O (stereo not given),> 79 µM (inactive)
16,Cc1ccc(S(=O)(=O)N(Cc2cccnc2)Cc2cc3ccccc3[nH]c2=O)cc1,> 79 µM (inactive)
17,COc1cc(-c2cc(C(=O)Nc3cccc(C(C)=O)c3)c3ccccc3n2)cc(OC)c1OC,8.45 µM
18,COc1ccc(-c2cc(C(=O)N(C)C)c3ccccc3n2)cc1OC,> 79 µM (inactive)

row,Compound,IC50
1,CC(C)CCNC(=O)C(c1ccc(O)cc1)N(C(=O)c1snc(C(N)=O)c1N)c1ccccc1F (stereo not given),> 79 µM (inactive)
2,COc1ccccc1N1C(=O)c2ccccc2N2C(=O)c3c(ccc(OC)c3OC)C12 (stereo not given),30.4 µM (inactive)
3,COc1cccc(CN(C)C(=O)c2cc(-c3ccc(OC)c(OC)c3)nc3ccccc23)c1,10.7 µM (inactive)
4,COc1ccc(-c2cc(C(=O)N(C)Cc3ccc(OC)c(OC)c3OC)c3ccccc3n2)cc1OC,10.1 µM (inactive)
5,COc1ccc(-n2cc(-c3ccccc3)c3c(NCc4ccccc4)ncnc32)cc1,> 79 µM (inactive)
6,COc1ccc2c(c1OC)C(=O)N1c3ccccc3C(=O)N(c3cccc(Br)c3)C21 (stereo not given),10.7 µM (inactive)
7,COc1ccc2c(c1OC)C(=O)N1c3ccccc3C(=O)N(c3ccc(F)cc3)C21 (stereo not given),33.2 µM (inactive)
8,O=C(C(=O)N1CCCCC1)c1c(-c2ccccc2)[nH]c2ccccc12,> 79 µM (inactive)
9,COCCn1c(SC(C(=O)Nc2cc(C)ccc2C)c2ccccc2)nc2ccccc2c1=O (stereo not given),> 79 µM (inactive)
10,COc1ccc(-n2cc(-c3ccccc3)c3c(N4CCCCC4)ncnc32)cc1,> 79 µM (inactive)
11,COc1ccc2cc(C(=O)N3CCN(S(=O)(=O)c4cc(C)ccc4C)CC3)c(C)nc2c1,> 79 µM (inactive)
12,COc1cccc(CN(C)C(=O)c2cc(-c3ccccc3)nc3ccc(C)cc23)c1OC,> 79 µM (inactive)
13,COc1ccc(-n2cc(-c3ccccc3)c3c(N4CCCC4)ncnc32)cc1,> 79 µM (inactive)
14,COc1cccc(NC(=O)CN(C)C(=O)c2cc(-c3cccs3)nn2-c2ccccc2)c1,> 79 µM (inactive)
15,CCN(CC)S(=O)(=O)c1cc(C(=O)N2CCN(Cc3cccc4cccnc34)CC2)ccc1C,> 79 µM (inactive)
16,O=C(C(=O)N1CCCC1)c1c(-c2ccccc2)[nH]c2ccccc12,> 79 µM (inactive)
17,O=c1[nH]c2ccccc2cc1CN(Cc1ccco1)S(=O)(=O)c1ccc(F)cc1,> 79 µM (inactive)
